Source: patent US7402691B2, “Malononitrile compounds and their use as pesticides” (Sumitomo Chemical Company, Limited, priority 2001, dated 2008)

System: Musca domestica
Assay: Pesticidal test against Musca domestica, filter paper with sucrose bait (Test Example 6)
Type: in vivo
Conditions: 500 ppm, 0.7 ml on filter paper, ten female adults, after 24 hours, read-out: mortality
Method: Ten female adults of Musca domestics (house fly) were set free in the polyethylene cup, which was then kept covered. After 24 hours, their survival was examined to determine the mortality.

Question: For `N#CC(C#N)(CCC(F)=C(F)F)Cc1ccccc1` [Compound 4, 2-benzyl-2-(3,4,4-trifluoro-3-butenyl)malononitrile], which mortality at 500 ppm is on record?
Answer: 100%

Question: With `N#CC(C#N)(CCC(F)(F)F)Cc1c(Cl)cc(C(F)(F)F)cc1Cl` [Compound 7, 2-(2,6-dichloro-4-(trifluoromethyl)benzyl)-2-(3,3,3-trifluoropropyl)malononitrile] as the compound, how does the mortality at 500 ppm read?
Answer: 100%

Question: For `N#CC(C#N)(CCC(F)(F)F)Cc1ccc(Br)cc1` [Compound 9, 2-(4-bromobenzyl)-2-(3,3,3-trifluoropropyl)malononitrile], which mortality at 500 ppm is on record?
Answer: 100%

Question: With `N#CC(C#N)(CCC(F)F)Cc1ccc(C(F)(F)F)cc1` [Compound 11, 2-(3,3-difluoropropyl)-2-(4-(trifluoromethyl)benzyl)malononitrile] as the compound, how does the mortality at 500 ppm read?
Answer: 100%

Question: For `N#CC(C#N)(CCC(F)(F)F)Cc1ccccc1` [Compound 12, 2-benzyl-2-(3,3,3-trifluoropropyl)malononitrile], which mortality at 500 ppm is on record?
Answer: 100%

Question: For `N#CC(C#N)(CCC(F)(F)F)Cc1ccc(SC(F)(F)F)cc1` [Compound 13, 2-(4-(trifluoromethylthio)benzyl)-2-(3,3,3-trifluoropropyl)malononitrile], which mortality at 500 ppm is on record?
Answer: 100%

Question: For `N#CC(C#N)(CCCF)Cc1ccc(C(F)(F)F)cc1` [Compound 14, 2-(3-fluoropropyl)-2-(4-(trifluoromethyl)benzyl)malononitrile], which mortality at 500 ppm is on record?
Answer: 100%

Question: Which mortality at 500 ppm does the source give for `N#CC(C#N)(CCC(F)(F)F)Cc1ccc(F)cc1` [Compound 16, 2-(4-fluorobenzyl)-2-(3,3,3-trifluoropropyl)malononitrile] here?
Answer: 100%

Question: `N#CC(C#N)(CCC(F)(F)F)Cc1ccc([N+](=O)[O-])cc1` [Compound 18, 2-(4-nitrobenzyl)-2-(3,3,3-trifluoropropyl)malononitrile] was tested. Which mortality at 500 ppm did it give?
Answer: 100%

Question: For `N#Cc1ccc(CC(C#N)(C#N)CCC(F)(F)F)cc1` [Compound 22, 2-(4-cyanobenzyl)-2-(3,3,3-trifluoropropyl)malononitrile], which mortality at 500 ppm is on record?
Answer: 100%

Question: How did the mortality at 500 ppm turn out when `N#CC(C#N)(CCC(F)(F)C(F)(F)F)Cc1ccc(Cl)cc1` [Compound 23, 2-(4-chlorobenzyl)-2-(3,3,4,4,4-pentafluorobutyl)malononitrile] was run?
Answer: 100%

Question: How did the mortality at 500 ppm turn out when `N#CC(C#N)(CCC(F)(F)F)Cc1ccc(I)cc1` [Compound 26, 2-(4-iodobenzyl)-2-(3,3,3-trifluoropropyl)malononitrile] was run?
Answer: 100%

Question: For `C=Cc1ccc(CC(C#N)(C#N)CCC(F)(F)F)cc1` [Compound 27, 2-(3,3,3-trifluoropropyl)-2-(4-vinylbenzyl)malononitrile], which mortality at 500 ppm is on record?
Answer: 100%

Question: For `CCc1ccc(CC(C#N)(C#N)CCC(F)(F)F)cc1` [Compound 31, 2-(4-ethylbenzyl)-2-(3,3,3-trifluoropropyl)malononitrile], which mortality at 500 ppm is on record?
Answer: 100%

Question: How did the mortality at 500 ppm turn out when `CC(C)(C)c1ccc(CC(C#N)(C#N)CCC(F)(F)F)cc1` [Compound 33, 2-(4-t-butylbenzyl)-2-(3,3,3-trifluoropropyl)malononitrile] was run?
Answer: 100%

Question: `CC(C)c1ccc(CC(C#N)(C#N)CCC(F)(F)F)cc1` [Compound 35, 2-(4-isopropylbenzyl)-2-(3,3,3-trifluoropropyl)malononitrile] was tested. Which mortality at 500 ppm did it give?
Answer: 100%

Question: How did the mortality at 500 ppm turn out when `N#CC(C#N)(CCC(F)(F)F)Cc1ccc(C(F)(F)F)c(Cl)c1` [Compound 39, 2-(3-chloro-4-(trifluoromethyl)benzyl)-2-(3,3,3-trifluoropropyl)malononitrile] was run?
Answer: 100%

Question: Which mortality at 500 ppm does the source give for `CC(c1ccc(Cl)cc1)C(C#N)(C#N)CCC(F)(F)F` (centres unmarked) [Compound 42, 2-(1-(4-chlorophenyl)ethyl)-2-(3,3,3-trifluoropropyl)malononitrile] here?
Answer: 100%

Question: `N#CC(C#N)(CCC(F)(F)F)Cc1ccc(F)cc1Cl` [Compound 44, 2-(2-chloro-4-fluorobenzyl)-2-(3,3,3-trifluoropropyl)malononitrile] was tested. Which mortality at 500 ppm did it give?
Answer: 100%

Question: How did the mortality at 500 ppm turn out when `Cc1cc(CC(C#N)(C#N)CCC(F)(F)F)ccc1[N+](=O)[O-]` [Compound 45, 2-(3-methyl-4-nitrobenzyl)-2-(3,3,3-trifluoropropyl)malononitrile] was run?
Answer: 100%

Question: `N#Cc1ccc(CC(C#N)(C#N)CCF)cc1` [Compound 46, 2-(4-cyanobenzyl)-2-(2-fluoroethyl)malononitrile] was tested. Which mortality at 500 ppm did it give?
Answer: 100%

Question: For `N#CC(C#N)(CCC(F)=C(F)F)Cc1ccc(OC(F)(F)F)cc1` [Compound 49, 2-(3,4,4-trifluoro-3-butenyl)-2-(4-(trifluoromethoxy)benzyl)malononitrile], which mortality at 500 ppm is on record?
Answer: 100%

Question: `CC(c1ccc(Cl)cc1)C(C#N)(C#N)CCF` (centres unmarked) [Compound 53, 2-(1-(4-chlorophenyl)ethyl)-2-(2-fluoroethyl)malononitrile] was tested. Which mortality at 500 ppm did it give?
Answer: 100%

Question: `N#CC(C#N)(CCC(F)=C(F)F)Cc1ccc(SC(F)(F)F)cc1` [Compound 54, 2-(3,4,4-trifluoro-3-butenyl)-2-(4-(trifluoromethylthio)benzyl)malononitrile] was tested. Which mortality at 500 ppm did it give?
Answer: 100%

Question: `N#CC(C#N)(CCF)Cc1ccc(F)cc1` [Compound 59, 2-(4-fluorobenzyl)-2-(2-fluoroethyl)malononitrile] was tested. Which mortality at 500 ppm did it give?
Answer: 100%

Question: Which mortality at 500 ppm does the source give for `N#CC(C#N)(CCC(F)(F)F)Cc1cc(F)cc(F)c1` [Compound 71, 2-(3,5-difluorobenzyl)-2-(3,3,3-trifluoropropyl)malononitrile] here?
Answer: 100%

Question: Which mortality at 500 ppm does the source give for `N#CC(C#N)(Cc1ccc(C(F)(F)F)cc1)CC(F)(F)F` [Compound 72, 2-(2,2,2-trifluoroethyl)-2-(4-(trifluoromethyl)benzyl)malononitrile] here?
Answer: 100%

Question: With `N#CC(C#N)(CCC(F)=C(F)F)Cc1ccc(C(F)(F)F)cc1` [Compound 73, 2-(3,4,4-trifluoro-3-butenyl)-2-(4-(trifluoromethyl)benzyl)malononitrile] as the compound, how does the mortality at 500 ppm read?
Answer: 100%

Question: How did the mortality at 500 ppm turn out when `N#CC(C#N)(CCC(F)(F)F)Cc1cccc(F)c1` [Compound 79, 2-(3-fluorobenzyl)-2-(3,3,3-trifluoropropyl)malononitrile] was run?
Answer: 100%

Question: For `N#CC(C#N)(CCC(F)(F)F)Cc1cccc(OCc2ccccc2)c1` [Compound 88, 2-(3-(benzyloxy)benzyl)-2-(3,3,3-trifluoropropyl)malononitrile], which mortality at 500 ppm is on record?
Answer: 100%

Question: Which mortality at 500 ppm does the source give for `COc1ccc(CC(C#N)(C#N)CCC(F)(F)F)cc1` [Compound 89, 2-(4-methoxybenzyl)-2-(3,3,3-trifluoropropyl)malononitrile] here?
Answer: 100%

Same assay, conditions: 24 h

Question: How did the mortality at 500 ppm turn out when `N#CC(C#N)(Cc1ccc(C(F)(F)F)cc1)CC(F)(F)C(F)(F)C(F)(F)F` [Compound 77, 2-(2,2,3,3,4,4,4-heptafluorobutyl)-2-(4-(trifluoromethyl)benzyl)malononitrile] was run?
Answer: 100%

System: Eysarcoris lewisi
Assay: Pesticidal test against Eysarcoris lewisi, treated peanut seeds (Test Example 4)
Type: in vivo
Conditions: 168 h, peanut seeds immersed 1 minute, adults, 7th day after release, read-out: rate of dead or moribund pests
Method: Then, 3 to 5 seeds of peanut were immersed in the test liquid, which had been prepared as described above, for 1 minute. After the test liquid treated the seeds of peanut was dried with a paper towel, a filter paper moistened with 1 ml of water was placed on a bottom of polyethylene cup and then the seeds of peanut was placed on it. Six to eight adults of Eysarcoris lewisi were set free in the polyethylene cup, which was then kept covered and left in a greenhouse at 25° C. On the 7th day after the release of Eysarcoris lewisi, the number of dead pests and moribund pests was examined.

Question: Which pest or weed control at 100 ppm does the source give for `N#CC(C#N)(CCC(F)(F)F)Cc1ccc(Br)cc1` [Compound 9, 2-(4-bromobenzyl)-2-(3,3,3-trifluoropropyl)malononitrile] here?
Answer: 100%

Question: For `N#CC(C#N)(CCC(F)F)Cc1ccc(C(F)(F)F)cc1` [Compound 11, 2-(3,3-difluoropropyl)-2-(4-(trifluoromethyl)benzyl)malononitrile], which pest or weed control at 100 ppm is on record?
Answer: 100%

Question: How did the pest or weed control at 100 ppm turn out when `N#CC(C#N)(CCCF)Cc1ccc(C(F)(F)F)cc1` [Compound 14, 2-(3-fluoropropyl)-2-(4-(trifluoromethyl)benzyl)malononitrile] was run?
Answer: 100%

Question: With `N#Cc1ccc(CC(C#N)(C#N)CCC(F)(F)F)cc1` [Compound 22, 2-(4-cyanobenzyl)-2-(3,3,3-trifluoropropyl)malononitrile] as the compound, how does the pest or weed control at 100 ppm read?
Answer: 100%

Question: For `N#CC(C#N)(CCC(F)(F)C(F)(F)F)Cc1ccc(Cl)cc1` [Compound 23, 2-(4-chlorobenzyl)-2-(3,3,4,4,4-pentafluorobutyl)malononitrile], which pest or weed control at 100 ppm is on record?
Answer: 100%

Question: Which pest or weed control at 100 ppm does the source give for `N#CC(C#N)(CCC(F)(F)F)Cc1ccc(C(F)(F)F)c(Cl)c1` [Compound 39, 2-(3-chloro-4-(trifluoromethyl)benzyl)-2-(3,3,3-trifluoropropyl)malononitrile] here?
Answer: 100%
